Each molecule was assayed against T1, human CTPS1 (Homo sapiens, UniProt P17812) (assay: ADP-Glo assay, human CTPS1 enzyme inhibition). Settings: wild-type human CTPS1 25 nM; ATP 120 μM, UTP 160 μM, GTP 60 μM, L-glutamine 100 μM; 25 degrees C.; read-out: ADP-Glo_WT_hCTPS1—25 nM_IC50 (IC50).
T1 sequence (P17812 1-591): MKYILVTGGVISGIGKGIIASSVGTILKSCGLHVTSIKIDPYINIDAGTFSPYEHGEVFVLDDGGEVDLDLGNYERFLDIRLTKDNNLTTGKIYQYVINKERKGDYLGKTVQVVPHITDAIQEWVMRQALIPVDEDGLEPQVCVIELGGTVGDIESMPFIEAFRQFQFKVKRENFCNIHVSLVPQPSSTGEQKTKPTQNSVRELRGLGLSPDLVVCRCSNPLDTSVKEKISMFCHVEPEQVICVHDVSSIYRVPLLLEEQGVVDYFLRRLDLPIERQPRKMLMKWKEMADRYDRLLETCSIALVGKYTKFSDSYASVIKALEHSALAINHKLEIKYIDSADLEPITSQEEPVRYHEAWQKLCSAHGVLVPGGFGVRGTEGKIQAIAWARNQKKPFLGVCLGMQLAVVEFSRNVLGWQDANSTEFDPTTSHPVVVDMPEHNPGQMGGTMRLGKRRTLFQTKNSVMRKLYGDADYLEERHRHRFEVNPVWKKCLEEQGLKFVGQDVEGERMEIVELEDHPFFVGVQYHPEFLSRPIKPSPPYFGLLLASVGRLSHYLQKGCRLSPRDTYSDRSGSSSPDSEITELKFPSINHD
Format: biochemical
Method in brief: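 Full-length tagged human CTPS1 (25 nM) pre-incubated 10 min at 25° C with compound, then 10 min with ATP (120 μM) and UTP (160 μM); reaction started with L-glutamine (100 μM) and GTP (60 μM), 1% DMSO, in HEPES pH 7.4, 10 mM Mg2+, 5 mM KCl, 2 mM DTT. Run within linear phase at 25° C; ADP measured by ADP-Glo luminescence.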

| IC50 [nM] | Compound |
| --- | --- |
| 5 to 25 | CCOc1cncc(-c2cnc(C(=O)N[C@H](c3nccc(NS(=O)(=O)C4CC4)c3F)[C@@H]3CCOC3)s2)n1 (single isomer, unassigned) [II-18] |

Same assay, conditions: wild-type human CTPS1, 25 nM enzyme; ADP-Glo; read-out: ADP-Glo_WT_hCTPS1—25 nM_IC50 (IC50)

| Compound | IC50 [nM] |
| --- | --- |
| CCOc1cncc(-c2cnc(C(=O)N[C@H](c3cccc(NS(=O)(=O)C(F)F)c3)[C@@H]3COCCO3)s2)n1 [I-199, N-((R)-(3-((difluoromethyl)sulfonamido)phenyl)((R)-1,4-dioxan-2-yl)methyl)-5-(6-ethoxypyrazin-2-yl)thiazole-2-carboxamide] | 5 to 25 |
| CCOc1cncc(-c2cnc(C(=O)N[C@H](CN3CC4(CCC4)C3)c3cc(NS(=O)(=O)C4CC4)ccn3)s2)n1 [I-154, (R)-N-(1-(4-(cyclopropanesulfonamido)pyridin-2-yl)-2-(2-azaspiro[3.3]heptan-2-yl)ethyl)-5-(6-ethoxypyrazin-2-yl)thiazole-2-carboxamide] | 5 to 25 |
| CCOc1cncc(-c2cnc(C(=O)N[C@H](c3cc(NS(=O)(=O)C4CC4)ccn3)C3CCOCC3)s2)n1 [I-20, (S)—N-((4-(cyclopropanesulfonamido)pyridin-2-yl)(tetrahydro-2H-pyran-4-yl)methyl)-5-(6-ethoxypyrazin-2-yl)thiazole-2-carboxamide] | 5 to 25 |
| CCOc1cncc(-c2cnc(C(=O)N[C@@H](Cn3nccn3)c3cccc(NS(=O)(=O)C(F)F)c3)s2)n1 [I-217, (R)-N-(1-(3-((difluoromethyl)sulfonamido)phenyl)-2-(2H-1,2,3-triazol-2-yl)ethyl)-5-(6-ethoxypyrazin-2-yl)thiazole-2-carboxamide] | 5 to 25 |
| O=C(N[C@H](c1ccnc(NS(=O)(=O)C2CC2)n1)[C@H]1CCOC1)c1ncc(-c2cnn3ccc(Cl)cc23)s1 [I-260, 5-(5-chloropyrazolo[1,5-a]pyridin-3-yl)-N-((S)-(2-(cyclopropanesulfonamido)pyrimidin-4-yl)((R)-tetrahydrofuran-3-yl)methyl)thiazole-2-carboxamide] | 5 to 25 |
| CCOc1cncc(-c2cnc(C(=O)N(C)[C@H](c3cc(NS(=O)(=O)C4CC4)ccn3)[C@@H]3CCOC3)s2)n1 [I-64, N-((S)-(4-(cyclopropanesulfonamido)pyridin-2-yl)((S)-tetrahydrofuran-3-yl)methyl)-5-(6-ethoxypyrazin-2-yl)-N-methylthiazole-2-carboxamide] | 50 to 100 |
| CCOc1cncc(-c2cnc(C(=O)N[C@H](c3cc(NS(=O)(=O)C4CC4)ccn3)[C@@H]3CC(=O)N(C)C3)s2)n1 [I-119, N-((S)-(4-(cyclopropanesulfonamido)pyridin-2-yl)((R)-1-methyl-5-oxopyrrolidin-3-yl)methyl)-5-(6-ethoxypyrazin-2-yl)thiazole-2-carboxamide] | 25 to 50 |
| CCOc1cncc(-c2cnc(C(=O)N[C@H](CN3CC[C@@]4(CCOC4)C3)c3cc(NS(=O)(=O)C4CC4)ccn3)s2)n1 [I-126, N-((R)-1-(4-(cyclopropanesulfonamido)pyridin-2-yl)-2-((R)-2-oxa-7-azaspiro[4.4]nonan-7-yl)ethyl)-5-(6-ethoxypyrazin-2-yl)thiazole-2-carboxamide] | 5 to 25 |
| O=C(N[C@H](CN1CCOCC1)c1cc(NS(=O)(=O)C2CC2)ccn1)c1ncc(-c2cnn3ccc(Cl)cc23)s1 [I-146, (R)-5-(5-chloropyrazolo[1,5-a]pyridin-3-yl)-N-(1-(4-(cyclopropanesulfonamido)pyridin-2-yl)-2-morpholinoethyl)thiazole-2-carboxamide] | 5 to 25 |
| CCOc1cncc(-c2ccc(C(=O)NCc3cc(NS(=O)(=O)C4CC4)ccn3)cc2F)n1 [I-173, N-((4-(cyclopropanesulfonamido)pyridin-2-yl)methyl)-4-(6-ethoxypyrazin-2-yl)-3-fluorobenzamide] | 5 to 25 |
| COC[C@@H](NC(=O)c1ncc(-c2cnn3ccc(Cl)cc23)s1)c1cc(NS(=O)(=O)C2CC2)ccn1 (single isomer, unassigned) [I-4] | 5 to 25 |
| CCOc1cncc(-c2cnc(C(=O)N(C)[C@@H](CN3CCOCC3)c3cc(NS(=O)(=O)C4CC4)ccn3)s2)n1 [I-141, (S)-N-(1-(4-(cyclopropanesulfonamido)pyridin-2-yl)-2-morpholinoethyl)-5-(6-ethoxypyrazin-2-yl)-N-methylthiazole-2-carboxamide] | 50 to 100 |
| CCOc1cncc(-c2cnc(C(=O)N[C@H](c3cccc(NS(=O)(=O)C(F)F)c3)[C@H]3COCCO3)s2)n1 [I-198, N-((R)-(3-((difluoromethyl)sulfonamido)phenyl)((S)-1,4-dioxan-2-yl)methyl)-5-(6-ethoxypyrazin-2-yl)thiazole-2-carboxamide] | 5 to 25 |
| CCOc1cncc(-c2cnc(C(=O)N[C@@H](CN3C[C@H]4CC[C@@H]3CO4)c3cc(NS(=O)(=O)C4CC4)ccn3)s2)n1 [I-123, N-((S)-2-((1R,4R)-2-oxa-5-azabicyclo[2.2.2]octan-5-yl)-1-(4-(cyclopropanesulfonamido)pyridin-2-yl)ethyl)-5-(6-ethoxypyrazin-2-yl)thiazole-2-carboxamide] | 50 to 100 |

Continued, values first:

| IC50 [nM] | Compound |
| --- | --- |
| 5 to 25 | CCOc1cncc(-c2cnc(C(=O)N[C@H](c3cc(NS(=O)(=O)C4CC4)ccn3)[C@H](C)CN3CCCCC3)s2)n1 (stereo in doubt) [I-53, N-((1S,2R)-1-(4-(cyclopropanesulfonamido)pyridin-2-yl)-2-methyl-3-(piperidin-1-yl)propyl)-5-(6-ethoxypyrazin-2-yl)thiazole-2-carboxamide] |
| 50 to 100 | CCOc1cncc(-c2cnc(C(=O)N[C@H](CC3COCCN3C)c3cccc(NS(=O)(=O)C(F)F)c3)s2)n1 (stereo partly drawn) [I-193, N-((1R)-1-(3-((difluoromethyl)sulfonamido)phenyl)-2-(4-methylmorpholin-3-yl)ethyl)-5-(6-ethoxypyrazin-2-yl)thiazole-2-carboxamide] |
| 5 to 25 | CCOc1cncc(-c2cnc(C(=O)N[C@@H](c3cccc(NS(=O)(=O)C(F)F)c3)[C@H]3CCOC3)s2)n1 [I-190, N-((R)-(3-((difluoromethyl)sulfonamido)phenyl)((R)-tetrahydrofuran-3-yl)methyl)-5-(6-ethoxypyrazin-2-yl)thiazole-2-carboxamide] |
| > 100 | CCOc1cncc(-c2cnc(C(=O)N[C@@H](CCN3CCCC4(CC4)C3)c3cc(NS(=O)(=O)C4CC4)ccn3)s2)n1 (single isomer, unassigned) [I-18] |
| 5 to 25 | CCOc1cncc(-c2cnc(C(=O)N[C@H](c3cccc(NS(=O)(=O)C(F)F)c3)[C@@H](C)O)s2)n1 [I-286, N-((1R,2R)-1-(3-((difluoromethyl)sulfonamido)phenyl)-2-hydroxypropyl)-5-(6-ethoxypyrazin-2-yl)thiazole-2-carboxamide] |
| 50 to 100 | C[C@@H](CN1CCCCC1)[C@@H](NC(=O)c1ncc(-c2cnn3ccc(Cl)cc23)s1)c1cc(NS(=O)(=O)C2CC2)ccn1 [I-55, 5-(5-chloropyrazolo[1,5-a]pyridin-3-yl)-N-((1R,2S)-1-(4-(cyclopropanesulfonamido)pyridin-2-yl)-2-methyl-3-(piperidin-1-yl)propyl)thiazole-2-carboxamide] |
| ≤ 5 | CCOc1cncc(-c2cnc(C(=O)N[C@H](C[C@H]3COCCN3C)c3cc(NS(=O)(=O)C4CC4)ccn3)s2)n1 [I-104, N-((R)-1-(4-(cyclopropanesulfonamido)pyridin-2-yl)-2-((S)-4-methylmorpholin-3-yl)ethyl)-5-(6-ethoxypyrazin-2-yl)thiazole-2-carboxamide] |
